Measurements reported in patent US5087712A, “Derivatives of platinum (II) with polymethylsiloxane, method for preparing same and antitumor agent based thereon” (priority 1989, dated 1992).

Assays:
ovary carcinoma = details: in combination with vinblastin, actinomycin and prednisolone; cited from earlier work
[1] = tested on: regrafted Schvetz's erythroleukosis; assay: Antitumor activity against regrafted Schvetz's erythroleukosis in rats; assay type: in vivo, white non-descript rats
Description: Their antitumor activity was studies in respect of regrafted Schvetz's erythroleukosis. The antitumor activity of each of the compounds according to the present invention was assessed from the experiments carried out on white non-descript rats with a mass of 150-200 g (10 animals in a group). The animals were hypodermally inoculated (in the thigh) with 2×10^8 cells of a regrafted Schvetz's erythroleukosis strain. On the 4th day after inoculation of the tumor cells, i.e. during the period of the lograithmic phase of the tumor growth the animals were administered with the compounds according to the present invention. They were administered once intraperitoneally or directly into the tumor node as powders. The compounds according to the present invention were administered in maximum effective and minimum effective doses:
The antitumor effect of the compounds according to the present invention was studies in comparison with the control and with the known preparations--CDDP and polymethylsiloxane.
The administered dose of CDDF was 8.1 mg/kg, that of polymethylsiloxane--4,000 mg/kg. […] Polymethylsiloxane was introduced in the form of a powder. Prior to administration the powders of polymethylsiloxane and of the compounds according to the present invention were sterilized by autoclaving in sealed flasks or in package from parchment paper for one hour under the excessive pressure of 1.0 atm and at the temperatuer of 100° C.
The animals were narcotized by way of a hypodermal injection of hexenal in a dose of from 40 to 60 mg/kg in the case of an intraperitoneal adminsitration of the compounds according to the present invention. […]
The antitumor activity of the test compounds was assessed for the following biological characteristics; the degree of inhibition of the tumor growth, survival of animals on the 10th day after inoculation of the tumor cells, life span of the animals.

inner organs = assay: Autopsy, morphological and histological investigations of inner organs; assay type: in vivo, rats; mice; details: doses lesser than the toxic one, 30th day after administration
Description: The dead animals were subjected to an autopsy and morpholigical and histological investigations of the inner organs were performed. The animals administered with the compounds in doses lesser than the toxic one were slaughtered after 3, 7, 14 and 30 days. Their inner organs were also subjected to an autopsy.

cell immunity = assay: Effect on cell immunity: time of rejection of a skin graft in tumor-carriers; assay type: in vivo, male rats of the Vistar line
Description: (§1) The immunological activity of the compound II according to the present invention was studied by variation of the characteristics of cellular and humoral immunity.
(§2) The effect of the compound II according to the present invention on the cell immunity was assessed by the time of rejection of a skin graft in the tumor-carriers. The effect on the humoral immunity was assessed by the number of antibody-forming cells in the spleen and antibodies in the blood serum formed in response to immunization, with ram ertyhrocytes, of both intact animals and the tumor-carriers.
The effect of the compound II according to the present invention on the cell immunity was studied on male rats of the Vistar line with a mass of 150-200 g. The animals were subjected to transplantation, by a standard method, of a skin graft of 2×3 cm size taken from rats of the August line. Then the animals were inoculated, under the thigh skin, with 2×10^8 cells of a regrafted strain of Schvetz's erythroleukosis.
CDDP was administered in a solution, while polymethylsiloxane and the compound II of the present invention--as a powder which was introduced into an opened abdominal cavity following to above-described procedure. The intact animals were used as a control. The time of rejection of the skin graft was fixed by variation of its temperature, colour and elasticity.

ovary cancer = assay: Clinical tests in patients with ovary cancer of the IV clinical stage; assay type: in vivo, human patients
Description: Depending on the treatment method all the patients were divided into 2 groups.

humoral immunity = assay: Effect on humoral immunity: antibody-forming cells in spleen and antibodies in blood serum of tumor-carriers; assay type: in vivo, rats of the Vistar line
Description: as §1, §2
Use was made of rats of the Vistar line which were incoulated, under the thigh skin, with 2×10^8 cells of a regrafted strain of Schvetz'erthroleukosis. […] On the 8th day after regrafting of the tumor the animals were subjected to immuniation by way of an intravenous administration of ram erythrocytes in the dose of1×10^6 cells. 4 days after immunization the animals were slaughtered by decapitation against the background of ethereal narcosis, the spleen was taken out and the content of antobidy-forming cells was determined threein by Erne'method, as well as titres of agglutinines and hemolysines in the peripheral blood using known methods.
The content of antibody-forming cells was determined for 10^6 splenocytes and for the entire mass of the spleen.

[2] = group I: compound II then CDDP, 1 year after operation, group II: CDDP only, 9 months-1 year
[3] = group I: compound II then CDDP, 2-3.5 years after the operation, group II: CDDP only
[4] = 4 days after immunization with ram erythrocytes

N.N.[Cl][Pt][Cl] [CDDP, cis-dichlorodiammonioplatinum (II)]
Effectiveness of therapy of ovary carcinoma (ovary carcinoma): 100%
Survival of animals ([1]; on the 10th day after inoculation of the tumor cells): 80%
Life span ([1]; rats with Schvetz's erythroleukosis): 11.5 ± 0.5 days
Degree of inhibition of the tumor growth ([1]; rats, single intraperitoneal or intratumoral administration on 4th day after inoculation): 78%
Degree and restoration of histological changes (inner organs): pronounced to even greater extent than in the case of administration of the compounds according to the present invention, they were only partly restored on the 30th day after administration
Effect on characteristics of the cell immunity of tumor-carriers (in words) (cell immunity): does not substantially affect the characteristics of the cell immunity of the tumor-carriers
Time of rejection of a skin graft (cell immunity; intraperitoneal CDDP 5.6, polymethylsiloxane 2,000, compound II 550 mg/kg): 13.5 ± 0.5 days
Full remission, number of patients (ovary cancer; group I (30): compound II then CDDP, group II (47): CDDP only): 14 patients
Full remission, share of patients (ovary cancer; group I (30 patients): compound II during operation then intraperitoneal CDDP, 2-3.5 years, group II (47 patients): CDDP only): 30%
Deaths, number of patients (ovary cancer; [2]): 9 persons
Deaths, share of patients (ovary cancer; [2]): 19%
Partial remission and stabilization of the process, number of patients (ovary cancer; [3]): 14 persons
Partial remission and stabilization of the process, share of patients (ovary cancer; [3]): 30%
Recurrence of the tumor growth, number of patients (ovary cancer; group II: CDDP only): 10 persons
Recurrence of the tumor growth, share of patients (ovary cancer; group II: CDDP only): 21%
Effect on humoral immunity (in words) (humoral immunity): inhibits the humoral immunity
Content of antibody-forming cells for the entire spleen (humoral immunity; [4]): (36.42 ± 2.15) × 10^3
Content of antibody-forming cells per 10^6 of splenocytes (humoral immunity; [4]): 20.50 ± 2.15
